This data set can be described thus: refractive index (Na D-line) (dimensionless); wn = mass fraction of the nth substance listed. To be noted: 288.15 K, 101 kPa, Liquid, Standard Abbe refractometry.

Numbers after ± are expanded uncertainties.

With `[Br-].[Br-].[Ca+2]` [calcium bromide] + O, the refractive index (in general, the speed of light in vacuum divided by its phase velocity in the sample) (w1 = 0.5794) is listed as 1.4892 ± 0.0004.

Turning to `[Br-].[Na+]` [sodium bromide] + O, for the setting “w1 = 0.4704”, the refractive index is listed as 1.4196 ± 0.0004.

Source of the values: the NIST ThermoML archive (doi:10.1021/je500881x).
